Data as given in patent US10130602B2, “Use of L-carnitine, salts and derivatives thereof for reducing or preventing fatigue and improving cognitive function” (priority 2011, dated 2018).

Legend:
Assay type in all cases: in vivo, human
[1] = test system: healthy, young male and female adults; assay: Cognitive Demand Battery (CDB), overall performance; settings: for Beneficial effect on fatigue / cognitive function, overall statement: general statement, preliminary findings for acetyl-L-carnitine
Text: The working hypothesis underlying this approach is that neural activity is costly in terms of local neural resources (e.g. metabolic substrates) and that the brain is therefore liable to suffer deficiencies in the short term. Any psychoactive properties of a test substance are therefore liable to be more readily apparent during this period of intense cognitive demand and the ‘mental fatigue’ state elicited by prolonged task performance. This paradigm may therefore be more sensitive than the use of less demanding cognitive tasks, particularly if an intervention has an impact on the delivery or utilisation of metabolic substrates.
(§1) In the current double-blind, placebo-controlled, balanced cross-over experiment we assessed the effects of single doses of LC (500 mg and 2000 mg) and ALC (1000 mg), administered on separate occasions, on mental fatigue and cognitive function during extended performance of mentally demanding tasks in healthy, young male and female adults.
(§2) 20 healthy adults (10 male, 10 female, 18 to 25 years) who had not taken prescription or illicit drugs or any food supplements within the preceding 4 weeks were recruited. Smokers and excessive consumers of caffeine were excluded, as were those who had consumed alcohol or caffeine within the 12 hours prior to a testing session.
Each participant received each treatment in an order counterbalanced by random allocation to a Latin square. Depending on the condition to which the participant was allocated on each day they received 4 capsules containing either 500 mg LC or 500 mg ALC or a placebo which were combined to give a total dose of either:
(§3) The objective of this battery is to assess the impact of a treatment on speed/accuracy and mental fatigue during continuous performance of cognitively demanding tasks. […] The 10 minute battery comprises:
(§4) Following the introductory visit participants attended the laboratory at 8.30 am on four further occasions, one week apart, receiving a different treatment on each occasion. They fasted (no food or drink except for water) and consumed no caffeine or alcohol for at least 12 hours prior to each session. On their first study day participants were randomly allocated to a treatment regime on the Latin square. On arrival on each occasion participants consumed a standard breakfast (40 g Kellogg's All-bran with 150 ml skimmed milk and a glass of water) following which they undertook an initial cognitive/mood assessment comprising completion of the attention tasks (‘Simple’/‘Choice’/‘Four choice’ reaction time) followed by 2 completions of the 10 minute CDB tasks (the first completion was a practice and the second was used for baseline assessment of performance) and the Stroop and Logical Reasoning tasks. They then consumed their treatment for that day. At 120 minutes post-dose they completed the attention tasks then commenced the full 60 minute (i.e. 6 completions of the 10 minutes of tasks) CDB. […] Mood was assessed with Bond-Lader mood scales pre-treatment and before and after the post-treatment cognitive assessment. […]
(§5) Statistical analysis for all of the cognitive/fatigue and mood measures derived from the battery were analysed by repeated measures Analysis of Variance (ANOVA) of baseline adjusted data (calculated against pre-dose). Measures with a single post-dose repetition (attention tasks, executive tasks) were analysed by one way ANOVA (condition). Measures with multiple post-dose repetitions (Mood, CDB) were analysed with two way ANOVA (condition×repetition). […]

[2] = test system: healthy, young male and female adults; assay: Bond-Lader mood scales
Description: as §1, §2
Prior to and following the tasks mood was assessed with Bond and Lader scales. This measure has been utilised in numerous pharmacological, psychopharmacological and medical trials. The scales comprise a total of sixteen lines (approximately 100 mm on screen) anchored at either end by antonyms (e.g. alert-drowsy, calm-excited). Subjects indicate their current subjective position between the antonyms on the line. Individual item scores were calculated as % distance along the line. Outcomes comprised three factor analysis derived scores: ‘Alertness’, ‘Calmness’ and ‘Contentment’.
(§6) Following the introductory visit participants attended the laboratory at 8.30 am on four further occasions, one week apart, receiving a different treatment on each occasion. They fasted (no food or drink except for water) and consumed no caffeine or alcohol for at least 12 hours prior to each session. On their first study day participants were randomly allocated to a treatment regime on the Latin square. On arrival on each occasion participants consumed a standard breakfast (40 g Kellogg's All-bran with 150 ml skimmed milk and a glass of water) following which they undertook an initial cognitive/mood assessment comprising completion of the attention tasks (‘Simple’/‘Choice’/‘Four choice’ reaction time) followed by 2 completions of the 10 minute CDB tasks (the first completion was a practice and the second was used for baseline assessment of performance) and the Stroop and Logical Reasoning tasks. They then consumed their treatment for that day. At 120 minutes post-dose they completed the attention tasks then commenced the full 60 minute (i.e. 6 completions of the 10 minutes of tasks) CDB. Following completion of the CDB participants completed the ‘Logical Reasoning’ and the ‘Stroop’ executive function tasks. Mood was assessed with Bond-Lader mood scales pre-treatment and before and after the post-treatment cognitive assessment. The set-up is shown schematically in FIG. 1.
(§7) Statistical analysis for all of the cognitive/fatigue and mood measures derived from the battery were analysed by repeated measures Analysis of Variance (ANOVA) of baseline adjusted data (calculated against pre-dose). Measures with a single post-dose repetition (attention tasks, executive tasks) were analysed by one way ANOVA (condition). Measures with multiple post-dose repetitions (Mood, CDB) were analysed with two way ANOVA (condition×repetition). Planned comparisons (placebo versus each active treatment) were then undertaken on baseline adjusted data from the single completion, or each of the multiple completions, as appropriate, utilising t-tests with Mean Squares Error from the ANOVA (Keppel 1991).

[3] = test system: healthy male and female individuals aged between 20 and 40 years; assay: CogState 12 minute Early Phase cognitive test battery
Description: Effects of carnitine on cognitive function were studied with a CogState™ 12 minute Early Phase cognitive test battery. The test was developed by CogState, US, and is described in U.S. Pat. No. 7,163,513 B2. The test uses playing cards and computer mazes for measuring the cognitive domains of executive function, psychomotor function, visual attention and visual learning. Tasks correspond to cognitive domains as follows: Maze learning task. […] It was carried out with 20 healthy male and female individuals aged between 20 and 40 years. The test was double-blind and placebo-controlled and studied effects of 500 mg L-carnitine, administered as 736 mg L-carnitine L-tartrate (Carnipure™ tartrate, Lonza AG) in water in a single dose. A single test battery of about 10 min comprised maze learning task, a detection task with playing cards, an identification task with playing cards and a one card learning task. Consecutive accomplishing of the test battery took place twice prior to and hourly after intake of the study preparation over a period of 6 hours.

[4] = test system: healthy, young male and female adults; assay: Cognitive Demand Battery: Serial Threes subtractions
Description: as §1, §2, §3
Modified, two minute, computerised versions of the Serial Threes and Serial Sevens tests were utilised. For both tasks a standard instruction screen informed the participant to count backwards in threes or sevens from the given randomly generated number, as quickly and accurately as possible, using the linear number keys to enter each response. Participants were also instructed verbally that if they made a mistake they should continue subtracting from the new, incorrect number. Each three-digit response was entered using the linear number keys on the keyboard with each digit being represented on screen by an asterisk. Pressing the enter key signals the end of each response and clears the three asterisks from the screen. The task was scored for total number of subtractions and number of errors. In the case of incorrect responses, subsequent responses were scored as positive if they were correct in relation to the new number.
as §4, §5

[5] = test system: healthy, young male and female adults; assay: Cognitive Demand Battery: Serial Sevens subtractions
Description: as §1, §2, §3
Modified, two minute, computerised versions of the Serial Threes and Serial Sevens tests were utilised. […] The task was scored for total number of subtractions and number of errors. In the case of incorrect responses, subsequent responses were scored as positive if they were correct in relation to the new number.
Following the introductory visit participants attended the laboratory at 8.30 am on four further occasions, one week apart, receiving a different treatment on each occasion. […] Mood was assessed with Bond-Lader mood scales pre-treatment and before and after the post-treatment cognitive assessment. […]
as §5

[6] = test system: healthy, young male and female adults; assay: Cognitive Demand Battery: subjective 'mental fatigue' scale
Description: as §1, §2, §3
At the end of each set of tasks participants were asked to indicate how mentally fatigued they felt by marking a 100 mm line with the end-points labelled “not at all” and “extremely”.
as §4, §5

[7] = test system: healthy, young male and female adults; assay: Cognitive Demand Battery: Rapid Visual Information Processing task (RVIP)
Description: as §1, §2, §3
The participants monitored a continuous series of digits for targets of three consecutive odd or three consecutive even digits. The digits were presented at the rate of 100 per minute and the participants responded to the detection of a target string by pressing a response key as quickly as possible. The task is continuous and lasts for 5 minutes, with 8 correct target strings being presented in each minute. The task was scored for percentage of target strings correctly detected, average reaction time for correct detections, and number of false alarms.
as §6, §7

[8] = 500 mg single dose in water, hourly over 6 hours

## CC(=O)O[C@H](CC(=O)[O-])C[N+](C)(C)C [ALC, acetyl-L-carnitine]
[1]; 1000 mg single dose
  Performance of the CDB in comparison to placebo: no evidence of benefits
[1]
  Beneficial effect on fatigue / cognitive function, overall statement: at best moderate
[2]; 1000 mg single dose, after the post-dose tasks, p=0.015
  Bond-Lader content rating compared to placebo: less content
[2]; 1000 mg single dose, before the post-dose tasks, p=0.001
  Bond-Lader content rating compared to placebo: less content
[2]; 1000 mg single dose, before undertaking the post-dose tasks, p=0.009
  Bond-Lader alert rating compared to placebo: less alert
[2]; 1000 mg single dose, second post-dose time-point as printed
  Bond-Lader alertness (summary of findings): lower levels of alertness

## C[N+](C)(C)C[C@H](O)CC(=O)[O-] [LC, L-carnitine]
[3]; 500 mg single dose in water, after four, five and six hours
  Psychomotor function (detection task): decrease of psychomotor function
[3]; 500 mg single dose in water, at the time of decreased psychomotor function (4-6 hours)
  Higher cognitive processes, such as memory and executive function: not impaired
[3]; [8]
  Visual attentional function (identification task): no significant effect
  Visual learning (one card learning task): no significant effect
[3]; 500 mg single dose in water, two hours after intake, individuals without fatigue
  Executive function (maze learning task): some evidence for a short-acting benefit
[3]; 500 mg single dose, beyond approximately two hours
  Long time improvement of cognitive function: not observed
[1]; 500 mg single dose, planned comparisons
  Performance of the CDB in comparison to placebo: significant improvements in performance of the CDB
[1]; 2000 mg single dose
  Performance of the CDB in comparison to placebo: no evidence of benefits
[1]
  Beneficial effect on fatigue / cognitive function, overall statement: pronounced
[2]; 500 mg single dose, first (pre-task) post-dose assessment, p=0.004
  Bond-Lader content rating compared to placebo: less content
[2]; 500 mg single dose, first (pre-task) post-dose assessment, p=0.037
  Bond-Lader calm rating compared to placebo: less calm
[2]; 500 mg single dose, post task assessment, p=0.016
  Bond-Lader calm rating compared to placebo: more calm
[4]; 500 mg single dose, 2nd repetition, p=0.08
  Serial 3s number of subtractions compared to placebo: statistical trends towards the same effect
[4]; 500 mg single dose, 3rd repetition, p=0.09
  Serial 3s number of subtractions compared to placebo: statistical trends towards the same effect
[4]; 500 mg single dose, 4th repetition, planned comparison p=0.006
  Serial 3s number of subtractions compared to placebo: more subtractions
[4]; 500 mg single dose, 6th repetition, p=0.016
  Serial 3s number of subtractions compared to placebo: more subtractions
[4]; 2000 mg single dose, 5th repetition, p=0.04, may be type 1 error
  Serial 3s number of subtractions compared to placebo: more subtractions
[5]; 500 mg single dose, 2nd repetition, p=0.044
  Serial 7s number of subtractions compared to placebo: more subtractions
[5]; 500 mg single dose, 4th repetition, p=0.018
  Serial 7s number of subtractions compared to placebo: more subtractions
[5]; 2000 mg single dose, 4th repetition, p=0.053
  Serial 7s number of subtractions compared to placebo: trend towards more subtractions
[6]; 500 mg single dose, 4th repetition, p=0.065
  Subjective mental fatigue rating compared to placebo: trend towards the same effect
[6]; 500 mg single dose, 6th repetition, p=0.033
  Subjective mental fatigue rating compared to placebo: ratings of fatigue were lower
[6]; 500 mg single dose, after each repetition, numerical, significant only after the last set
  Subjective mental fatigue rating compared to placebo: numerically less ‘mentally fatigued’
[6]; 2000 mg single dose, 5th repetition, p=0.02
  Subjective mental fatigue rating compared to placebo: higher than placebo
[7]; 500 mg single dose, 2nd repetition, p=0.015
  RVIP accuracy compared to placebo: outperformed placebo
[7]; 500 mg single dose, 3rd repetition, p=0.013
  RVIP speed of responses compared to placebo: performed faster
[7]; 500 mg single dose, 3rd repetition, p=0.036
  RVIP accuracy compared to placebo: outperformed placebo
[7]; 500 mg single dose, 4th repetition, p=0.07
  RVIP accuracy compared to placebo: trend towards the same effect
[7]; 500 mg single dose, each of 6 repetitions, significant only at the 3rd
  RVIP speed of responses compared to placebo: performed faster at each repetition
[7]; 2000 mg single dose, 4th repetition, p=0.089
  RVIP speed of responses compared to placebo: trend towards slower responding
